Data from patent publication US9045445B2, “Glycine transporter-1 inhibitors, methods of making them, and uses thereof” (Albany Molecular Research, Inc., priority 2010, dated 2015).
pIC50: −log10 of the molar value. Counter-ions that a name gives are not always drawn. Like-named read-outs stand apart in the source and are kept apart here.

How the values were obtained:
[1] = biological target: T1, glycine transporter-1 (GlyT-1) (Homo sapiens, UniProt P48067); experiment: [14C]glycine uptake assay in JAR cells endogenously expressing GlyT-1 (scintillation proximity); type: cell-based; settings: JAR cells, [14C]glycine 5 μM, 3 hour incubation; read-out: GlyT-1 IC50
T1 construct: JAR cells (ATCC#HTB-144), which endogenously express GlyT-1; host or cells: JAR human choriocarcinoma cells
T1 sequence (P48067 1-706): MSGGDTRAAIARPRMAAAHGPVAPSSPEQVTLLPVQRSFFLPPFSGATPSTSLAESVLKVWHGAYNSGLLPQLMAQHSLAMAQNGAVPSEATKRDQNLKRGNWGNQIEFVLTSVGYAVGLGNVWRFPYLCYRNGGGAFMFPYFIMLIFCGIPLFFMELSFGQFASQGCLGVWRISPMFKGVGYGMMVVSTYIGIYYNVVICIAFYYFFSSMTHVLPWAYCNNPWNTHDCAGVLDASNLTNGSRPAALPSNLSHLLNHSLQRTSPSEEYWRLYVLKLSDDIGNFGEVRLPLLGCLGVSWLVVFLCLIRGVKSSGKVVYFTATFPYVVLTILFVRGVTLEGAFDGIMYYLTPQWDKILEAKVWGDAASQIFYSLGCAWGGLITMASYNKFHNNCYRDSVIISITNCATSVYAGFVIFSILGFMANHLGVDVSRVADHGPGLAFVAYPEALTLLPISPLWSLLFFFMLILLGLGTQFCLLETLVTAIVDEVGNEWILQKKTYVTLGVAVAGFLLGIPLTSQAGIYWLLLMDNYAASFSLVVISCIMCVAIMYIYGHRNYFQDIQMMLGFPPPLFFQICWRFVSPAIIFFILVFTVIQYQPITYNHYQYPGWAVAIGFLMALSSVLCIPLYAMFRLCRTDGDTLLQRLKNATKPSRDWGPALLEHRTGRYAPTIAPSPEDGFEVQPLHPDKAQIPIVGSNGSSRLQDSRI
Outline: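 Human choriocarcinoma JAR cells (endogenous GlyT-1) attached overnight, then pre-incubated 10 min at room temperature with compound in pH 7.4 Hepes uptake buffer containing 5 mM alanine and 0.75% DMSO. Uptake of 5 μM [14C]glycine over 3 h at 37 °C read by scintillation proximity; IC50 from four-parameter fit of nine-point curves.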

[2] = biological target: T2, glycine transporter-2 (GlyT-2) (Homo sapiens, UniProt Q9Y345); experiment: [14C]glycine uptake assay in HEK-GlyT-2 transfected cells; type: cell-based; settings: HEK-GlyT-2 cells
T2 construct: expressed in transfected cells
T2 sequence (Q9Y345 1-797): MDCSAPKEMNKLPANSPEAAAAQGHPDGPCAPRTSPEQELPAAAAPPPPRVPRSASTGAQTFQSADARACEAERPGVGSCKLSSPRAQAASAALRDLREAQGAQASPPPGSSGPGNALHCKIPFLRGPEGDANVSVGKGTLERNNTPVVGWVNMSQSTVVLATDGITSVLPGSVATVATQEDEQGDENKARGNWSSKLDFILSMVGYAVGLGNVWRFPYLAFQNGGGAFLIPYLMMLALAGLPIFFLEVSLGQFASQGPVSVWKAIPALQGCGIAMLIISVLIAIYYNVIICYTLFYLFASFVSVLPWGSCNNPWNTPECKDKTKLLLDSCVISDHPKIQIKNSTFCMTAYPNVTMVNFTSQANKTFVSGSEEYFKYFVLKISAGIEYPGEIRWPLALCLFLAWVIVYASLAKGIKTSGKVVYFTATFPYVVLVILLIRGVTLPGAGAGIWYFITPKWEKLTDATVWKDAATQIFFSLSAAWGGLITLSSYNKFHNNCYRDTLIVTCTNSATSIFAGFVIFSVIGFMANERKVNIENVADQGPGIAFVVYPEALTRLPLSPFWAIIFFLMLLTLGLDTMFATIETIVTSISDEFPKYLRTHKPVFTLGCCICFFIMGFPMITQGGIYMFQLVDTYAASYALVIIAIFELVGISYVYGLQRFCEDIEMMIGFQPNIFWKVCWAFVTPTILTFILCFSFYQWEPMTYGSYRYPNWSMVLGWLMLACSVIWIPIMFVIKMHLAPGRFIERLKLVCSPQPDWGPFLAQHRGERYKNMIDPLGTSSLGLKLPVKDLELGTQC

[3] = test system: cerebrospinal fluid (CSF) glycine levels; experiment: CSF-glycine assay after oral administration; type: in vivo; settings: Rattus norvegicus, po, rats, read-out: % CSF Glycine Increase versus Vehicle Control
Description: This study measured cerebrospinal fluid (CSF) glycine levels after oral administration of test compound. […] After the specified pretreatment time, the rats were euthanized by CO2 asphyxiation and a hypodermic needle was inserted into the cisterna magna to withdraw 50-100 μl of CSF. The CSF was diluted with deuterated-glycine as an internal standard glycine was quantified by LC/MS/MS.

| Compound | pIC50 [1] | pIC50 [2] | change in vivo at 3 mg/kg ([3]; 2 h, pretreatment 120 mins) | change in vivo at 10 mg/kg ([3]; 2 h, pretreatment 120 mins) | change in vivo at 30 mg/kg ([3]; 2 h, pretreatment 120 mins) | other results |
| --- | --- | --- | --- | --- | --- | --- |
| Cl.Cn1cc(S(=O)(=O)N2CCN(C3(CNC(=O)c4ccc(C(F)(F)F)cc4Cl)CCOCC3)CC2)nn1 [compound 277, 2-Chloro-N-((4-(4-(1-methyl-1H-1,2,3-triazol-4-ylsulfonyl)piperazin-1-yl)tetrahydro-2H-pyran-4-yl)methyl)-4-(trifluoromethyl)benzamide Hydrochloride] | 8.10 | – | – | – | – | melting point: 147 °C |
| CC(NC(=O)c1ccc(C(F)(F)F)cc1C(F)(F)F)C1(N2CCN(S(=O)(=O)c3cn(C)nn3)CC2)CCC(F)(F)CC1 (centres unmarked) [compound 226, N-(1-(4,4-Difluoro-1-(4-(1-methyl-1H-1,2,3-triazol-4-ylsulfonyl)piperazin-1-yl)cyclohexyl)ethyl)-2,4-bis(trifluoromethyl) benzamide Hydrochloride] | 9.00 | < 4.12 | 243% | 344% | – | change in vivo at 3 mg/kg ([3]; 6 h, pretreatment 360 mins): 227%; change in vivo at 10 mg/kg ([3]; 6 h, pretreatment 360 mins): 339% |
| CC(=O)CS(=O)(=O)N1CCN(C2(CNC(=O)c3ccc(C(F)(F)F)cc3Cl)CCC(F)(F)CC2)CC1 (as salt: hydrochloride) [compound 280, 2-Chloro-N-((4,4-difluoro-1-(4-(2-oxopropylsulfonyl)piper-azin-1-yl)cyclohexyl)methyl)-4-(trifluoromethyl) benzamide Hydrochloride] | – | – | – | – | – | melting point: 65 to 67 °C |
| Cn1cnc(S(=O)(=O)N2CCN(C3(CNC(=O)c4ccc(F)cc4F)CCC(F)(F)CC3)CC2)c1 [compound 162, N-((4,4-difluoro-1-(4-(1-methyl-1H-imidazol-4-ylsulfonyl)piperazin-1-yl)cyclohexyl)methyl)-2,4-difluorobenzamide Hydrochloride] | 7.34 | < 3.87 | – | 130% | 156% | change in vivo at 10 mg/kg ([3]; 0.5 h, pretreatment 30 mins): 154%; change in vivo at 30 mg/kg ([3]; 0.5 h, pretreatment 30 mins): 178%; change in vivo at 100 mg/kg ([3]; 0.5 h, pretreatment 30 mins): 207%; change in vivo at 100 mg/kg ([3]; 2 h, pretreatment 120 mins): 156% |
| Cn1cc(S(=O)(=O)N2CCN(C3(CNC(=O)c4ccc(F)cc4Cl)CCC(F)(F)CC3)CC2)nn1 [compound 192, 2-Chloro-N-((4,4-difluoro-1-(4-(1-methyl-1H-1,2,3-triazol-4-ylsulfonyl)piperazin-1-yl)cyclohexyl)methyl)-4-fluorobenzamide Hydrochloride] | 9.00 | < 4.12 | 199% | 311% | – | change in vivo at 3 mg/kg ([3]; 0.5 h, pretreatment 30 mins): 173%; change in vivo at 10 mg/kg ([3]; 0.5 h, pretreatment 30 mins): 195% |
| Cn1cc(S(=O)(=O)N2CCN(C3(CNC(=O)c4ccc(C(F)(F)F)cc4C(F)(F)F)CCC(F)(F)CC3)CC2)nn1 [compound 221, N-((4,4-Difluoro-1-(4-(1-methyl-1H-1,2,3-triazol-4-ylsulfonyl)piperazin-1-yl)cyclohexyl)methyl)-2,4-bis(trifluoromethyl) benzamide Hydrochloride] | 9.00 | < 4.12 | – | 226% | – | change in vivo at 10 mg/kg ([3]; 6 h, pretreatment 360 mins): 241% |
| Cn1cc(S(=O)(=O)N2CCN(C3(CNC(=O)c4ccc(C(F)(F)F)cc4Cl)CCC(F)(F)CC3)CC2)nn1 [compound 193, 2-Chloro-N-((4,4-difluoro-1-(4-(1-methyl-1H-1,2,3-triazol-4-ylsulfonyl)piperazin-1-yl)cyclohexyl)methyl)-4-(trifluoromethyl)benzamide Hydrochloride] | 9.00 | < 4.12 | – | 282% | 279% | change in vivo at 10 mg/kg ([3]; 6 h, pretreatment 360 mins): 303%; change in vivo at 30 mg/kg ([3]; 6 h, pretreatment 360 mins): 355% |
| CCCS(=O)(=O)N1CCN(C2(CNC(=O)c3c(F)cccc3F)CCC(F)(F)CC2)CC1 [compound 130, N-((4,4-Difluoro-1-(4-(propylsulfonyl)piperazin-1-yl)cyclohexyl)methyl)-2,6-difluorobenzamide Hydrochloride] | 7.17 | < 4.12 | – | 123% | 125% | change in vivo at 10 mg/kg ([3]; 0.5 h, pretreatment 30 mins): 148%; change in vivo at 30 mg/kg ([3]; 0.5 h, pretreatment 30 mins): 185%; change in vivo at 75 mg/kg ([3]; 0.5 h, pretreatment 30 mins): 201%; change in vivo at 75 mg/kg ([3]; 2 h, pretreatment 120 mins): 201% |
| CC(NC(=O)c1ccc(F)cc1Cl)C1(N2CCN(S(=O)(=O)c3cn(C)nn3)CC2)CCC(F)(F)CC1 (centres unmarked) [compound 219, 2-Chloro-N-(1-(4,4-difluoro-1-(4-(1-methyl-1H-1,2,3-triazol-4-ylsulfonyl)piperazin-1-yl)cyclohexyl)ethyl)-4-fluorobenzamide Hydrochloride] | 8.52 | < 4.12 | 181% | 310% | – | – |
| Cn1cc(S(=O)(=O)N2CCN(C3(CNC(=O)c4ccc(C(F)(F)F)cc4C(F)(F)F)CCOCC3)CC2)nn1 (as salt: hydrochloride) [compound 276, N-((4-(4-(1-Methyl-1H-1,2,3-triazol-4-ylsulfonyl)piperazin-1-yl)tetrahydro-2H-pyran-4-yl)methyl)-2,4-bis(trifluoromethyl) benzamide Hydrochloride] | – | – | – | – | – | melting point: 145 °C |
| CC(NC(=O)c1ccc(C(F)(F)F)cc1Cl)C1(N2CCN(S(=O)(=O)c3cn(C)nn3)CC2)CCC(F)(F)CC1 (centres unmarked) [compound 224, 2-Chloro-N-(1-(4,4-difluoro-1-(4-(1-methyl-1H-1,2,3-triazol-4-ylsulfonyl)piperazin-1-yl)cyclohexyl)ethyl)-4-(trifluoromethyl)benzamide Hydrochloride] | 9.00 | < 4.12 | 186% | 347% | – | – |
| CC(O)CS(=O)(=O)N1CCN(C2(CNC(=O)c3ccc(C(F)(F)F)cc3Cl)CCC(F)(F)CC2)CC1 (centres unmarked) [compound 252, 2-Chloro-N-((4,4-difluoro-1-(4-(2-hydroxypropylsulfonyl)piperazin-1-yl)cyclohexyl)methyl)-4-(trifluoromethyl)benzamide Hydrochloride] | 7.48 | < 4.12 | – | – | 207% | – |
